{
  "source": "patent US20100291584A1",
  "about": "“MICROFLUIDIC IMAGING CYTOMETRY” (The Regents of the University of California, priority 2008, published 2010)",
  "key": {"U87-PTEN cells": {"tested_on": "U87-PTEN cells", "assay": "2-NBDG glucose analog uptake on chip", "format": "cell-based, human", "conditions": "20 min incubation in HBSS", "experimental": "(§1) To monitor glucose uptake in U87 cells, a fluorescent deoxyglucose (2-[N-(7-nitrobenz-2-oxa-1,3-diaxol-4-yl)amino]-2-deoxyglucose; 2-NBDG)^72,73 was used and monitored the 2-NBDG uptake by U87 and U87-PTEN cells (FIG. 6). After cells were loaded into a chip, culture medium was washed with Hanks' balanced salt solution (HBSS) with CaCl2. Then, 2-NBDG in HBSS was loaded into a cell chamber and incubated for 20 min in an incubator."}, "U87 cells": {"tested_on": "U87 cells", "assay": "2-NBDG glucose analog uptake on chip", "format": "cell-based, human", "conditions": "20 min incubation in HBSS", "experimental": "as §1"}, "mTOR": {"biological_target": "mTOR (Homo sapiens, UniProt P42345+P62942)", "conditions": "glioblastoma patients"}, "[1]": {"tested_on": "recurrent malignant gliomas", "assay": "Clinical trial of Avastin (in combination with CPT-11) in patients with recurrent malignant gliomas", "format": "in vivo, human", "from_the_text": "The obvious clinical efficacy of avastin will most certainly change the standard of care for malignant glioma patients. […] We will address the following questions: 1) does increased vascularity predispose towards clinical response to avastin (this will be done in collaboration with Dr. Luisa Iruela-Arispe, a noted expert in angiogenesis at UCLA); 2) are the downstream signaling pathways regulated by VEGF reactivated during response and by what mechanism. Are tumors which are driven by key pathways that promote VEGF expression (i.e. EGFR/PI3K signaling) more sensitive to avastin? In addition to testing lese specific hypotheses, we will apply global screening strategies. These include array CGH to detect chromosomal regions of interest associated with sensitivity and resistance (will be done at MSKCC by Dr. Mellinghoff) and integrated with global gene expression data (done both at UCLA and at MSKCC), in addition, through our NanoSystems Biology Cancer Center, we have begun collaboration with Dr. Lee Hood to use surface Plasmon resonance to facilitate the quantitative detection of thousands of proteins in a serum samples. This will enable us to identify protein signatures associated with sensitivity and acquired resistance."}},
  "data": [
    {"compound": "O=[N+]([O-])c1ccc(N[C@H]2C(O)O[C@H](CO)[C@@H](O)[C@@H]2O)c2nonc12", "note": "(stereo partly drawn) [2-NBDG, 2-[N-(7-nitrobenz-2-oxa-1,3-diaxol-4-yl)amino]-2-deoxyglucose]", "values": [
      {"measurement": "fluorescent signal of 2-NBDG uptake", "setting": "U87-PTEN cells", "value": "could not be detected"},
      {"measurement": "fluorescent signal of 2-NBDG uptake", "setting": "U87 cells", "value": "signals of 2-NBDG were observed"}
    ]},
    {"compound": "CO[C@H]1C[C@@H]2CC[C@@H](C)[C@@](O)(O2)C(=O)C(=O)N2CCCC[C@H]2C(=O)O[C@H]([C@H](C)C[C@@H]2CC[C@@H](O)[C@H](OC)C2)CC(=O)[C@H](C)/C=C(\\C)[C@@H](O)[C@@H](OC)C(=O)[C@H](C)C[C@H](C)/C=C/C=C/C=C/1C", "note": "[rapamycin]", "values": [
      {"measurement": "rapamycin level in tumor tissue in vivo", "setting": "mTOR", "value": "present in potentially therapeutic levels"},
      {"measurement": "extent of mTOR pathway inhibition", "setting": "mTOR; in vivo, variable between patients", "value": "10%-80%"}
    ]},
    {"compound": "Avastin: VEGF inhibitor, given in combination with CPT-11", "values": [
      {"measurement": "median time to tumor progression", "setting": "[1]; Avastin with CPT-11, 95% CI=122-272, comparator median 56 days", "value": 209, "unit": "days"},
      {"measurement": "median overall survival", "setting": "[1]; Avastin with CPT-11, 95% CI=251-424, comparator median 184 days", "value": 340, "unit": "days"}
    ]}
  ]
}
